Values quoted from earlier work in patent publication US20130324497A1, “COMPOSITIONS AND METHODS FOR TREATING HEPATITIS B VIRUS INFECTION” (priority 2012, published 2013).
“Also recorded” adds a separate entry of the source. Where two headings read alike, the source gives them in different places.

Legend:
hepatitis B virus = details: for cumulative rate of resistance: 5 years
[1] = test system: HBV mutants resistant to lamivudine
[2] = in vivo

Compound | 5-year resistance rate (hepatitis B virus; 5-year, monotherapy) | susceptibility of lamivudine-resistant mutants [1] | cumulative rate of resistance (hepatitis B virus; HBeAg negative patients) | cumulative rate of resistance (hepatitis B virus; HBeAg positive patients) | adefovir-associated nephrotoxicity, patients [2]
Nc1ncnc2c1ncn2CCOCP(=O)(O)O [adefovir] | 20-30% | retain susceptibility; also recorded: remain susceptible |  |  | 
CC(C)(C)C(=O)OCOP(=O)(COCCn1cnc2c(N)ncnc21)OCOC(=O)C(C)(C)C [adefovir dipivoxil, 9-[2-[[bis[(pivaloyloxy)methoxy]-phosphinyl]-methoxy]ethyl]adenine] |  |  | ~29% | about 20% | up to 47%
